Results: ChEMBL document CHEMBL4011635 (J Med Chem, 2017)
≈ marks a conversion by molar mass, not a printed value. Calls of active or inactive are those of the source. No cut-off for these calls is given here.

Columns and labels:
[1] = Apparent permeability from basolateral to apical side in human Caco2 cells; assay type: ADME, cell-based; conditions: Caco-2
[2] = Aqueous equilibrium solubility of compound in pH 6.8 solution by high throughput assay; assay type: physicochemical; conditions: aqueous pH 6.8 solution
[3] = in vitro; conditions: human, Caco-2
[4] = Protein binding in human plasma; assay type: ADME, cell-free; conditions: read-out: PPB (converted)
[5] = target: Complement factor D (Homo sapiens, UniProt P00746); test: Inhibition of recombinant human complement factor D catalytic domain (G24 to A253 residues) expressed in expressed in Escherichia coli(Rosetta) using Z-Lys-thiobenzylester as substrate preincubated for 1 hr followed by substrate addition by 2,4-dinitrobenzenesulfonyl-2,7-desmethyl-fluorecein probe based spectrofluorimetric assay
[6] = Drug uptake in Brown Norway rat neural retina at 10 mg/kg, po administered as single dose via gavage after 6 hrs by LC-MS/MS analysis; assay type: ADME, organism-based; conditions: read-out: Drug uptake
[7] = system: Mus musculus; test: In vivo inhibition of Ba generation in plasma of B6-Cfdtm1.1(CFD)Npa mouse at 30 mg/kg, po administered via gavage treated up to 24 hrs prior to test and LPS challenge up to 7.5 hrs prior to test measured up to 8 hrs; assay type: functional, organism-based
[8] = system: Salmonella typhimurium; test: Genotoxicity in Salmonella typhimurium by Ames test; assay type: toxicity; conditions: salmonella enterica subsp. enterica serovar typhimurium
[9] = Drug uptake in Brown Norway rat plasma at 10 mg/kg, po administered as single dose via gavage after 6 hrs by HPLC-MS/MS analysis; assay type: ADME, organism-based
[10] = target: Cytochrome P450 2C9 (Homo sapiens, UniProt P11712)
[11] = system: Cynomolgus monkey; test: In vivo inhibition of complement factor D in cynomolgus monkey assessed as decrease in zymosan-induced AP activation by measuring soluble MAC complex deposition in serum at 10 to 50 mg/kg, po administered as single dose via gavage measured 4 hrs post dose; assay type: functional, organism-based; conditions: Macaca fascicularis
[12] = system: Mus musculus; test: In vivo inhibition of complement activation in B6-Cfdtm1.1(CFD)Npa mouse assessed as decrease C3d generation in eyes at 30 mg/kg, po administered via gavage treated up to 24 hrs prior to test and LPS challenge up to 7.5 hrs prior to test measured up to 12 hrs; assay type: functional, organism-based
[13] = target: Voltage-gated inwardly rectifying potassium channel KCNH2 (Homo sapiens, UniProt Q12809)
[14] = system: Cynomolgus monkey; test: In vivo inhibition of complement factor D in cynomolgus monkey assessed as decrease in zymosan-induced AP activation by measuring soluble MAC complex deposition in serum administered as single dose via oral gavage measured at 4 to 24 hrs post dose; assay type: functional, organism-based; conditions: Macaca fascicularis
[15] = Drug uptake in Brown Norway rat posterior eye cup at 10 mg/kg, po administered as single dose via gavage after 6 hrs by LC-MS/MS analysis; assay type: ADME, organism-based; conditions: read-out: Drug uptake
[16] = target: Cytochrome P450 3A4 (Homo sapiens, UniProt P08684)
[17] = system: Mus musculus; test: In vivo inhibition of complement activation in B6-Cfdtm1.1(CFD)Npa mouse assessed as decrease iC3b generation in eyes at 30 mg/kg, po administered via gavage treated up to 24 hrs prior to test and LPS challenge up to 7.5 hrs prior to test measured up to 12 hrs; assay type: functional, organism-based
[18] = target: Cytochrome P450 2D6 (Homo sapiens, UniProt P10635)
[19] = system: Lymphocyte; test: Genotoxicity in human primary lymphocytes by micronucleus test; assay type: toxicity, cell-based
[20] = system: Cynomolgus monkey; test: In vivo inhibition of complement factor D in cynomolgus monkey assessed as serum concentration required to show complete reduction in zymosan-induced AP activation by measuring soluble MAC complex deposition at 10 to 50 mg/kg, po administered as single dose via gavage measured at 4 to 24 hrs post dose by LC-MS analysis; assay type: functional, Macaca fascicularis
[21] = AUC (0 to 8 hrs) in Sprague-Dawley rat plasma at 10 mg/kg, po by LC-MS/MS analysis; assay type: ADME, organism-based; design: dose 10 mg/kg, time < 8 hr, route oral
[22] = Cmax in Sprague-Dawley rat plasma at 10 mg/kg, po by LC-MS/MS analysis; assay type: ADME, organism-based; design: dose 10 mg/kg, route oral
[23] = Terminal half life in Sprague-Dawley rat at 1 mg/kg, iv administered as bolus dose by LC-MS/MS analysis; assay type: ADME, organism-based; conditions: in vivo, read-out: beta t1/2 (converted)
[24] = Clearance in Sprague-Dawley rat at 1 mg/kg, iv administered as bolus dose by LC-MS/MS analysis; assay type: ADME, organism-based; conditions: in vivo
[25] = Oral bioavailability in Sprague-Dawley rat at 10 mg/kg by LC-MS/MS analysis; assay type: ADME, organism-based; conditions: in vivo

| Structure (SMILES) | Papp B→A [1] [×10⁻⁶ cm/s] | solubility thermodynamic [2] [µM] | Papp A→B [3] [×10⁻⁶ cm/s] | fraction unbound [4] | further results |
| --- | --- | --- | --- | --- | --- |
| NC(=O)n1cc(NC(=O)N2C[C@@H](O)C[C@H]2C(=O)Nc2cccc(OC(F)(F)F)c2)c2ccccc21 | 17 | 23 (≈ 11.3 µg/mL) | 0.77 | – | – |
| NC(=O)n1cc(NC(=O)N2C[C@@H](N)C[C@H]2C(=O)Nc2cccc(OC(F)(F)F)c2)c2ccccc21 | 5.1 | 280 (≈ 137 µg/mL) | 2.1 | – | – |
| NC(=O)n1cc(NC(=O)N2C[C@H](F)C[C@H]2C(=O)Nc2cccc(OC(F)(F)F)c2)c2ccccc21 | 8 | 7 (≈ 3.45 µg/mL) | 0.75 | – | – |
| Cn1cc(NC(=O)N2CCC[C@H]2C(=O)Nc2cccc(OC(F)(F)F)c2)c2ccccc21 | – | – | – | – | IC50 [5]: 20 µM |
| NC(=O)n1cc(NC(=O)N2CCC[C@H]2C(=O)Nc2cccc(OC(F)(F)F)c2)c2ccccc21 | 6.3 | 17 (≈ 8.08 µg/mL) | 6.1 | – | Activity [8]: Non-Toxic; AUC(0-t) at 8 h [21]: 4.99 µM·h; Cmax [22]: 1170 nM; Activity [19]: Non-Toxic; half-life [23]: 1.4 h; clearance [24]: 21 mL/min/kg; bioavailability [25]: 25% |

Now from value to molecule, other results behind:

| Papp B→A [1] [×10⁻⁶ cm/s] | solubility thermodynamic [2] [µM] | Papp A→B [3] [×10⁻⁶ cm/s] | fraction unbound [4] | Structure (SMILES) | further results |
| --- | --- | --- | --- | --- | --- |
| 14.2 | 110 (≈ 52 µg/mL) | 11.3 | 0.048 | NC(=O)n1cc(NC(=O)N2[C@@H]3C[C@@H]3C[C@H]2C(=O)Nc2cccc(C(F)(F)F)n2)c2ccccc21 | – |
| 7 | 46 (≈ 22.5 µg/mL) | 10 | < 0.01 | NC(=O)n1cc(NC(=O)N2[C@@H]3C[C@@H]3C[C@H]2C(=O)Nc2cccc(C(F)(F)F)c2F)c2ccccc21 | – |
| 18.1 | 170 (≈ 82.2 µg/mL) | 15.3 | 0.08 | NC(=O)c1nn(CC(=O)N2[C@@H]3C[C@@H]3C[C@H]2C(=O)Nc2cccc(Br)n2)c2ccccc12 | concentration at 6 h [6]: 90 nM; inhibition [7]: Active; Activity [8]: Non-Toxic; concentration at 6 h [9]: 360 nM; IC50 [10]: > 20 µM; inhibition [11]: Active; inhibition [12]: Active; IC50 [13]: > 30 µM; EC50 [14]: 0.038 µM; concentration at 6 h [15]: 430 nM; IC50 [16]: 17 µM; inhibition [17]: Active; IC50 [18]: > 20 µM; Activity [19]: Non-Toxic; INH [20]: >0.5 µM |
| – | – | – | 0.131 | NC(=O)c1cn(CC(=O)N2[C@@H]3C[C@@H]3C[C@H]2C(=O)Nc2cccc(Br)n2)c2ccccc12 | – |
| 6.5 | 10 (≈ 5.05 µg/mL) | 5.1 | – | NC(=O)n1cc(NC(=O)N2[C@@H]3C[C@@H]3C[C@H]2C(=O)Nc2cccc(OC(F)(F)F)c2F)c2ccccc21 | – |
| 10.3 | 57 (≈ 27.5 µg/mL) | 9.6 | 0.036 | NC(=O)n1cc(NC(=O)N2[C@@H]3C[C@@H]3C[C@H]2C(=O)Nc2cccc(Br)n2)c2ccccc21 | – |
| 5.7 | 77 (≈ 37.5 µg/mL) | 4.5 | – | NC(=O)n1cc(NC(=O)N2[C@@H]3C[C@@H]3C[C@H]2C(=O)Nc2cccc(OC(F)(F)F)c2)c2ccccc21 | – |
